Publication PMC5310657, “Effects of an unusual poison identify a lifespan role for Topoisomerase 2 in Saccharomyces cerevisiae” (Aging (Albany NY), 2017)
pIC50: −log10 of the molar value.

Legend:
Format in all cases: biochemical
[1] = biological target: T1, yeast topoisomerase 2 (yTop2) (Saccharomyces cerevisiae, UniProt P06786); experiment: in vitro pUC18 plasmid linearization (DNA cleavage) assay, reference Top2 poison
T1 construct: gene TOP2
T1 sequence (P06786 1-1428): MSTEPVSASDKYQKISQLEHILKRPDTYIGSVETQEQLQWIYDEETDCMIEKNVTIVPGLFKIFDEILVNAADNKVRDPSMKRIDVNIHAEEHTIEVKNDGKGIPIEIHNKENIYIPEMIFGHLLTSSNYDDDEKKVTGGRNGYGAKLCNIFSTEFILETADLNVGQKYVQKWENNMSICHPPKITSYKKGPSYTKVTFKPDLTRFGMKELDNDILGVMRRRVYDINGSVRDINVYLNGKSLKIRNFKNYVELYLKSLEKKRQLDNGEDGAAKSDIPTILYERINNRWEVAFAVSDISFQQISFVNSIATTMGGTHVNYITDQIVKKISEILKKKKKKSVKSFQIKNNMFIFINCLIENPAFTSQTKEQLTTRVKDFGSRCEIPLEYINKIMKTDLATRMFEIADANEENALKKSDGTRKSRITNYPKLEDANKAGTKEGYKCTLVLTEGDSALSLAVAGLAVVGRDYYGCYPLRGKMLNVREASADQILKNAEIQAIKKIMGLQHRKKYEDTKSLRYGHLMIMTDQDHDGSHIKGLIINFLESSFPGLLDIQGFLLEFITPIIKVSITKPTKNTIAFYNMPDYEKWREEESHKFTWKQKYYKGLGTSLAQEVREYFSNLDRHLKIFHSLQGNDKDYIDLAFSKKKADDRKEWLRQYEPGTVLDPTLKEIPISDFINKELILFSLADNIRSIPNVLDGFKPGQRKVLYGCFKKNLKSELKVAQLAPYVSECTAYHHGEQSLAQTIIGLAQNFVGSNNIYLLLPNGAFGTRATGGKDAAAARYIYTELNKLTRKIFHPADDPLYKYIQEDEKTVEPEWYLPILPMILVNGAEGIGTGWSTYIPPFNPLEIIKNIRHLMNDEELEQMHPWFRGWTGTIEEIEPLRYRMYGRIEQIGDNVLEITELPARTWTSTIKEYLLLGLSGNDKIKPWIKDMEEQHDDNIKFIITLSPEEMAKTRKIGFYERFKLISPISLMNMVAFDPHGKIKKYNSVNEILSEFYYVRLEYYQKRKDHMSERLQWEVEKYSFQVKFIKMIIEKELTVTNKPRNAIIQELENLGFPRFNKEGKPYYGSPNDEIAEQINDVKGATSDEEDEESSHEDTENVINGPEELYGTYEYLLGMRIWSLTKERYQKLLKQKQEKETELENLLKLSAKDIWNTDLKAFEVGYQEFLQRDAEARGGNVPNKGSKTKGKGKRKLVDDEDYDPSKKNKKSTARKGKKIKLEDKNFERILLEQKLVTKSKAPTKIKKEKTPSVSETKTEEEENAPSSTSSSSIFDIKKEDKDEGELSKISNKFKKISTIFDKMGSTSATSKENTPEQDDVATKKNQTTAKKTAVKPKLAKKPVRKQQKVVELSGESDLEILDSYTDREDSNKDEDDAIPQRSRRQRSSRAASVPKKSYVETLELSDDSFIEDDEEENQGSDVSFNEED

[2] = biological target: T1, yeast topoisomerase 2 (yTop2); experiment: in vitro pUC18 plasmid linearization (DNA cleavage) assay; supported by TOP2 overexpression hypersensitivity and resistant top2 mutants
human Top2α = biological target: T2, human Top2α (Homo sapiens, UniProt P11388); experiment: kinetoplast DNA decatenation assay with purified human TOP2-α
T2 construct: gene TOP2A
T2 sequence (P11388 whole entry): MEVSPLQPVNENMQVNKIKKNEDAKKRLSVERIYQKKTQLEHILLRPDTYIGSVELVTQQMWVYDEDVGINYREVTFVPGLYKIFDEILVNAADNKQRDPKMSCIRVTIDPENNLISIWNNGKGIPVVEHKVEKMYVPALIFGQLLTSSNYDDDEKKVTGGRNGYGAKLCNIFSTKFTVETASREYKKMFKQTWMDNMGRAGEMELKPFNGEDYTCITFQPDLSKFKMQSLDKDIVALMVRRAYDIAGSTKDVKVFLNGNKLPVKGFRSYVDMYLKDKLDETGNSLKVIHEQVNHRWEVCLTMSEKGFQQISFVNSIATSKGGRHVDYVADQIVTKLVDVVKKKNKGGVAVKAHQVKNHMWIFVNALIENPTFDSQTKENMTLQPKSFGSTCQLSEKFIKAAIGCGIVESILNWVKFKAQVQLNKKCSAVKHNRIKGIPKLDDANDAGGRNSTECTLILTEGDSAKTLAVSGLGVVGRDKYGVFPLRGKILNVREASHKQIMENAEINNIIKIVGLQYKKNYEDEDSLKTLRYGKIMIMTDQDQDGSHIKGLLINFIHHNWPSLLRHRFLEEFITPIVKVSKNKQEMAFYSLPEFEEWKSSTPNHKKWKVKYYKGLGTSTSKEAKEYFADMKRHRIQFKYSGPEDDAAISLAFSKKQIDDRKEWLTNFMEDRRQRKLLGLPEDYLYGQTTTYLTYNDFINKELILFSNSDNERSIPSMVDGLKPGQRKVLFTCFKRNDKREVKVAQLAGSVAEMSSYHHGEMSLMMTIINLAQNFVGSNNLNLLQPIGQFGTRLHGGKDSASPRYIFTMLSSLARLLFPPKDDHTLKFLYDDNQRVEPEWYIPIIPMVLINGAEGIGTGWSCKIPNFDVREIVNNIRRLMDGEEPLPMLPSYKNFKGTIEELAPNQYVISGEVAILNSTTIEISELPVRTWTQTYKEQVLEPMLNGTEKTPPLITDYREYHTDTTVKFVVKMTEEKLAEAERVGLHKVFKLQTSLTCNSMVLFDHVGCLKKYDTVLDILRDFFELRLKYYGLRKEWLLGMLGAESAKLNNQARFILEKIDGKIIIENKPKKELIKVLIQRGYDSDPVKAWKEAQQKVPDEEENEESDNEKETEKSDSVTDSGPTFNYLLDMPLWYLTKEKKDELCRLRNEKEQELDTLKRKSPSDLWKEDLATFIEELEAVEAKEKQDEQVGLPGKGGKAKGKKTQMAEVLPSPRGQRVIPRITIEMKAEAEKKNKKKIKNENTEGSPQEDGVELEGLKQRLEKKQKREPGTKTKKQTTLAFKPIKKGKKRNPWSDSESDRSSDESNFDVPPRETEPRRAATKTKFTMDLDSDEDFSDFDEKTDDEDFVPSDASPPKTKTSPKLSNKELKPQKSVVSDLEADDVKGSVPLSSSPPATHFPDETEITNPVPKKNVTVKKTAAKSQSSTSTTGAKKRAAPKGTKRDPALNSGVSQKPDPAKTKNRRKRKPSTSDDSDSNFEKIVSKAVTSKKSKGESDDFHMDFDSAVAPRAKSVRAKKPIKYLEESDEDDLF

| pIC50 (human Top2α) | SMILES | in vitro pUC18 plasmid linearization (DNA cleavage) assay, reference Top2 poison [1] | in vitro pUC18 plasmid linearization (DNA cleavage) assay; supported by TOP2 ove [2] |
| --- | --- | --- | --- |
|  | COc1cc([C@@H]2c3cc4c(cc3[C@@H](O[C@@H]3O[C@@H]5CO[C@@H](C)O[C@H]5[C@H](O)[C@H]3O)[C@H]3COC(=O)[C@H]23)OCO4)cc(OC)c1O [ETOP, etoposide] | formation by yTop2 of DSBs in plasmid DNA (Fig. 7A & B), albeit less efficiently than etoposide |  |
| 5.52 | c1ccc2nc3c(nc2c1)[nH]c1ccccc13 [LS1, 6H-Indolo [2,3-b] quinoxaline] |  | LS1 promotes the in vitro formation by yTop2 of DSBs in plasmid DNA (Fig. 7A & B) |
